Key:
KRAS G12C-SOS1 [1] = molecular target: T1, KRAS G12C-SOS1 (Homo sapiens (Human), UniProt Q07889); experiment: Inhibition test of compounds on KRAS G12C::SOS1 binding; conditions: GST-KRAS G12C, His-SOS1
Protocol: The compound to be tested was prepared into a 10 mM stock solution with DMSO, and the compound was serially diluted using 1× test buffer. 0.1 μL of the compound solution with different concentrations was transferred to a 384-well plate. […] 5 μL of His-SOS1 was added to the 384-well plate, centrifuged at 1000 rpm for 1 min, and incubated at room temperature for 15 min.
After incubation, 10 μL of a mixed solution of anti-6his-Tb monoclonal antibody (Cisbio, Cat. No. 61HI2TLA) and anti-GST-XL665 monoclonal antibody (Cisbio, Cat. No. 61GSTXLA) was added to the test well, centrifuged at 1000 rpm for 1 min, and incubated at room temperature for 1 h.
After incubation, the fluorescence signal ratios at 665 nm and 615 nm were read on a multifunctional microplate reader (Perkin Elmer, Envision 2104), and the IC50 values were calculated using Graphpad 5 software.
Target sequence in this assay (Q07889 whole entry, stated change not applied): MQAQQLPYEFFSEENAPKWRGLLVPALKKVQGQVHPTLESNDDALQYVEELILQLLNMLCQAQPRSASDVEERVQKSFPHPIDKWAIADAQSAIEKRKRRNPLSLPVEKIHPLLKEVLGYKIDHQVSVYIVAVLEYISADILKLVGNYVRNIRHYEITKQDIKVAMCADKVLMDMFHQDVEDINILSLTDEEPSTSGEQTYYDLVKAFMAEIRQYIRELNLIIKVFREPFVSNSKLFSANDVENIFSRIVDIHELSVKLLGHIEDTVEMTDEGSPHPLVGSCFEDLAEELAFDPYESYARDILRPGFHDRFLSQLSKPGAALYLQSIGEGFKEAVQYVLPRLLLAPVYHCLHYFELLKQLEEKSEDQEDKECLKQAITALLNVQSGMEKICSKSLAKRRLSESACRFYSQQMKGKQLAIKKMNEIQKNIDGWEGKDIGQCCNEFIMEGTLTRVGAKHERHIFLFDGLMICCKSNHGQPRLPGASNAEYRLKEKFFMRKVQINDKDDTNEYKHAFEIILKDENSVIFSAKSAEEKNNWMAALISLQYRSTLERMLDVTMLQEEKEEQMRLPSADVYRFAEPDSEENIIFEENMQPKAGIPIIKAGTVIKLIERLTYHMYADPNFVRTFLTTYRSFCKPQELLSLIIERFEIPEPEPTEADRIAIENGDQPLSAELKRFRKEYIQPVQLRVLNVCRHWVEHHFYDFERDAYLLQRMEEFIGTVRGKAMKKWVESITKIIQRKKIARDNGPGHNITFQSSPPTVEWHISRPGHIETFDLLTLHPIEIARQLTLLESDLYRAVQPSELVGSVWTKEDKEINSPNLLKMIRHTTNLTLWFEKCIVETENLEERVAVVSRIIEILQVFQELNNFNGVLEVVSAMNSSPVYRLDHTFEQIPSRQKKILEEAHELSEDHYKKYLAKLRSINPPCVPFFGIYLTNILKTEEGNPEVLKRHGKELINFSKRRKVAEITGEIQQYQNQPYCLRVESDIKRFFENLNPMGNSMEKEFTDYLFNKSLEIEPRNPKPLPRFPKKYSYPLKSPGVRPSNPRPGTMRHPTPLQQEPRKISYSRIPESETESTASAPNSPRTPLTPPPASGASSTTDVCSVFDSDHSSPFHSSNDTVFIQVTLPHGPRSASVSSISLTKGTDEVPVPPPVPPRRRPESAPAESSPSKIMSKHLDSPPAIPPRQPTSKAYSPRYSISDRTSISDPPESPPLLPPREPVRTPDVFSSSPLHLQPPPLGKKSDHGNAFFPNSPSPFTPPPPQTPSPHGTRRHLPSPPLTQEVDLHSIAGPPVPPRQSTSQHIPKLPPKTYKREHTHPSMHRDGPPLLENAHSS

KRAS G12C-SOS1 [2] = molecular target: T1, KRAS G12C-SOS1; experiment: Inhibition test on KRAS G12C-SOS1 activity (Transcreener GDP-FI); format: biochemical
Target sequence in this assay (Q07889 564-1049 limits assumed): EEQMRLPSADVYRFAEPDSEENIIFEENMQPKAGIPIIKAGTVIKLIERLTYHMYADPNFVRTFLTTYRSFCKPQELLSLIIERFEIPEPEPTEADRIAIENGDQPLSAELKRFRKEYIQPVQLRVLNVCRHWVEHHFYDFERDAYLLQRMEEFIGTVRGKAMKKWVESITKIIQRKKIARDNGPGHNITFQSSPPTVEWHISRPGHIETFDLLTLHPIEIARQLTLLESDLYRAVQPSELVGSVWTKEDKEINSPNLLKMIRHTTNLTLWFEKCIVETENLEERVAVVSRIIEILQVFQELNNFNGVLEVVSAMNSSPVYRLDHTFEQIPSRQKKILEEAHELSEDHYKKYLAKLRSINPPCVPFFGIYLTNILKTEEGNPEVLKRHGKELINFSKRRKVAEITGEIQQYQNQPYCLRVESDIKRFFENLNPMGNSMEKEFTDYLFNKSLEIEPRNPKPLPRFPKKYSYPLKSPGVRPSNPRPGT
Protocol: The compound to be tested was prepared into a 10 mM stock solution with DMSO, and serially diluted using 1× test buffer (modified Tris buffer). The resulting compound solution was transferred to a 384-well plate, and the final content of DMSO was 0.25%, and an additional DMSO well without compound was set up as a high signal control.
1× test buffer (modified Tris buffer) was prepared. […] 5 μL of SOS1 and 5 μL of GTP were transferred to the 384-well plate, respectively.
GDP detection reagent was prepared using the test buffer. 10 μL of the detection reagent solution was transferred to the 384-well plate and incubated at room temperature for 2 h. After incubation, the plate was read on a multifunctional microplate reader (SpectraMax Paradigm) with an excitation wavelength of 580 nm and an emission wavelength of 620 nm. The fluorescence signal was read, and the inhibition rate was calculated as:
inhibition percentage=(high signal control−sample signal)/(high signal control−low signal control)×100, and IC50 values were calculated using Graphpad 5 software.

[3] = system: ERK phosphorylation level in DLD-1 cells; experiment: Inhibition of ERK phosphorylation level in DLD-1 cells (intracellular western blot); format: cell-based; conditions: Homo sapiens
Protocol: Intracellular western blot quantitative analysis was used to detect the inhibitory level of compounds on ERK phosphorylation in DLD-1 cells.
DLD-1 cells (ATCC, CCL-221) were seeded in a T75 culture flask at 2.5×10^6 cells/flask and cultured in a RPMI 1640 medium containing 10% FBS for 2 days. On day 3, the cells were seeded on a 384-well plate, and cultured overnight at 37° C., 5% CO2. After overnight culture, the plate was added with serially diluted compounds (the final content of DMSO was 0.5%), the negative group was added with DMSO, and incubated in a 37° C., 5% CO2 incubator.
The cells were fixed, washed once with PBS, treated to disrupt membranes, and blocked at room temperature for 1 h. The blocking solution was removed. The plate was added with primary antibody (CST, Cat. No. #4370S), and incubated overnight at 4° C. The plate was washed 3 times with PBST (PBS solution added with 0.05% Tween-20) and soaked for 2 min each time. The plate was added with secondary antibody (LI-COR, Cat. No. 926-32211) and incubated at room temperature in the dark. The plate was washed 3 times with PBST and soaked for 2 min each time. The plate was centrifuged at 1000 rpm for 1 min, scanned on a two-color infrared laser imaging system (Odyssey® CLX) to read the signal.
Relative signal=800-channel signal values/700-channel signal values.
Relative expression level of ERK phosphorylation=(test compound−control compound I)/(DMSO group−control compound I)
IC50 values were calculated using Graphpad 5 software.

[4] = Human liver microsome stability test; format: in vitro ADME; conditions: human liver microsomes; for Remaining percentage (%) of compound after incubation for 30 min: 37° C.; for half-life at 1 µM: human
Protocol: The human liver microsome stability test was performed by incubating the compound and human liver microsomes in vitro. First, the compound to be tested was prepared into a 10 mM stock solution in DMSO solvent, and then the compound was diluted to 0.5 mM with acetonitrile. Human liver microsomes (Corning) were diluted with PBS into a microsome/buffer solution, and the solution was used to dilute 0.5 mM compound into a working solution, in which the concentration of the compound was 1.5 μM, and the concentration of human liver microsomes was 0.75 mg/mL. A deep-well plate was taken, 30 μL of the working solution was added per well, and then 15 μL of pre-heated 6 mM NADPH solution was added thereto to initiate a reaction, and the reaction was incubated at 37° C. At 0, 5, 15, 30 and 45 min of the incubation, 135 μL of acetonitrile was added to the corresponding wells to terminate the reaction. After the reaction was terminated with acetonitrile at the last time point of 45 min, the deep-well plate was vortexed and vibrated for 10 min (600 rpm/min), and then centrifuged for 15 min. After centrifugation, the supernatant was collected, and added with purified water in a ratio of 1:1 to perform LC-MS/MS detection. A ratio of a peak area of compound to a peak area of internal standard at each time point was obtained, and the peak area ratios of the compound at 5, 15, 30 and 45 min were compared with the peak area ratio at 0 min to calculate the remaining percentage of the compound at each time point. T1/2 was calculated by using GraphPad 5 software.

[5] = Plasma protein binding by equilibrium dialysis, human plasma; format: in vitro ADME; conditions: 37° C., read-out: Free fraction in plasma, Human (%)
Protocol: (§1) Plasma protein binding rate of compounds was detected by equilibrium dialysis (HTDialysis, HTD 96b). The compound was prepared into a […] stock solution with DMSO, and then 25-fold diluted with 0.05 M sodium phosphate buffer as a working solution. A blank 96-well plate was taken and preloaded with 380 μL of plasma per well. The plasma was then added with the working solution at 20 μL/well and mixed well, with the compound at a final concentration of 1 μM, containing 0.2% DMSO per well.
(§2) 100 μL of 0.05 M sodium phosphate buffer was added to the reception-side of each dialysis chamber (HTD 96b), and then 100 μL of plasma containing the compound was added to the supply-side. The dialysis chamber was covered with a plastic lid, shaken and incubated at 37° C. for 5 h.
(§3) After incubation, 25 μL of samples were taken from each of the supply-side and the reception-side of the dialysis chamber and placed in the blank 96-well plate. An equal volume of plasma was added to each of the supply-side samples while an equal volume of 0.05 M sodium phosphate buffer was added to each of the reception-side samples and mixed well. The 96-well plate was added with an acetonitrile solution containing internal standard at 200 μL per well, vortexed and shaken at 600 rpm for 10 min, and centrifuged at 5594 g for 15 min (Thermo Multifuge×3R). 50 μL of the supernatant was then transferred to a new 96-well plate, and the samples were mixed with 50 μL of ultra-pure water for LC-MS/MS analysis.
(§4) Plasma protein binding rate and free fraction were calculated using the following formulas: % binding rate=100×([supply-side concentration]5h−[reception-side concentration]5h)/[supply-side concentration]5h. % free fraction=100−% binding rate.

[6] = Plasma protein binding by equilibrium dialysis, mouse plasma; format: in vitro ADME; conditions: 37° C., read-out: Free fraction in plasma, Mouse (%)
Protocol: as §1, §2, §3, §4

SMILES	IC50 (KRAS G12C-SOS1 [1])	IC50 (KRAS G12C-SOS1 [2])	IC50 [3]	Remaining percentage (%) of compound after incubation for 30 min [4]	half-life at 1 µM [4]	fraction unbound at 5 h, 1 µM [5]	fraction unbound at 5 h, 1 µM [6]
Cc1nc(N[C@H](C)c2cccc(S(=O)(=O)C(F)F)c2C)c2cn(C3(CF)CC3)c(=O)cc2n1 [Compound I-1, (R)-4-((1-(3-((difluoromethyl)sulfonyl)-2-methylphenyl)ethyl)amino)-6-(1-(fluoromethyl)cyclopropyl)-2-methylpyrido[4,3-d]pyrimidin-7(6H)-one]	6.87 nM	59 nM	102 nM	76.4%	1.46 h	0.042	0.054
Cc1nc(N[C@H](C)c2cccc(S(=O)(=O)C(F)(F)F)c2F)c2cn(C3(CF)CC3)c(=O)cc2n1 [Compound I-2, (R)-4-((1-(2-fluoro-3-((trifluoromethyl)sulfonyl)phenyl)ethyl)amino)-6-(1-(fluoromethyl)cyclopropyl)-2-methylpyrido[4,3-d]pyrimidin-7(6H)-one]	7.73 nM	102 nM	58 nM	96.5%	7.92 h	0.015	0.028

Source: patent publication US20240166645A1, “PYRIDOPYRIMIDINONE DERIVATIVE, PREPARATION METHOD THEREFOR, AND USE THEREOF” (Wuhan Humanwell Innovative Drug Research and Development …, priority 2021, published 2024)
